Results on two compounds are retold here after patent US20170128435A1, “TREATMENT OF MULTIPLE SCLEROSIS WITH LAQUINIMOD” (Teva Pharmaceutical Industries, Ltd., priority 2009, published 2017).

Where two headings read alike, the source gives them in different places.

For data set [1] the following is noted: (Polman, 2005; Sandberg-Wollheim, 2005); cited from earlier work.
For a further data set, the system named is relapsing MS. As to conditions: cited from earlier work.
Data set [2] has as its system subjects with Relapsing-Remitting Multiple Sclerosis (RRMS). The data set can be described thus: Phase III clinical trial BRAVO: laquinimod over placebo, with Interferon β-1a (Avonex®) reference arm. As to conditions: daily oral 0.6 mg, RRMS patients. Type of data set: in vivo, human. How it is done: A multinational, multicenter, randomized, parallel-group, clinical trial is performed in subjects with RRMS (“BRAVO”). BRAVO is conducted to assess the efficacy, safety and tolerability of laquinimod over placebo in a double-blinded design and of a reference arm of Interferon β-1a (Avonex®) in a rater-blinded design. A multinational, Multicenter, Randomized, Parallel-Group study performed in subjects with Relapsing-Remitting Multiple Sclerosis (RRMS) to assess the efficacy, safety and tolerability of laquinimod over placebo in a double-blind design and of a reference arm of Interferon β-1a (Avonex®)in a rater-blinded design. Treatment phase: 24 months of once-daily oral administration of laquinimod 0.6 mg, matching oral placebo or once-weekly intramuscular administration of Interferon β-1a (Avonex®) 30 mcg. Eligible subjects are randomized in a 1:1:1 ratio (oral laquinimod: oral placebo: Avonex®) and assigned to one of the following three treatment arms: • 1. Laquinimod 0.6 mg per os once daily (400 subjects). The 0.6 mg laquinimod is administered as laquinimod capsules which contains 0.6 mg of Laquinimod Acid per capsule with meglumine. • 2. Matching placebo (for laquinimod) per os once daily (400 subjects). • 3. Interferon β-1a (Avonex®) 30 mcg intramuscular injection once weekly (400 subjects). Subjects on oral treatment are managed in a double-blind manner. Subjects assigned to injectable treatment with Avonex® and their Treating Neurologist/Physician are unblinded to the treatment assignment, but assessed neurologically by an Examining Neurologist/Physician in a blinded manner (potential IM injection sites are covered). During the study, the following assessments are performed (regardless of the treatment assignment) at the specified time points: • 1. Vital signs are measured at each study visit. • 2. A physical examination is performed at months −1 (screening), 0 (baseline) 1, 3, 6, 12, 18 and 24 (termination/early discontinuation). • 3. The following safety clinical laboratory tests are performed: • a. Complete blood count (CBC) with differential—at all scheduled visits. A reticulocyte count is added to the CBC at months 0 (baseline) and 24 (termination/early discontinuation) as well as in occasions of significant decrease in hemoglobin. • b. Serum chemistry (including electrolytes, liver enzymes, direct and total bilirubin, CPK and pancreatic amylase), and urinalysis—at all scheduled visits. • c. Serum TSH, T3 and Free T4 are measured at months 0 (baseline), 6, 12, 18 and 24 (termination/early discontinuation). • d. […] Markers of inflammation (serum conventional C-reactive protein and fibrinogen) are measured at all scheduled visits. • 5. […]

Data set [3] relates to Relapsing-Remitting Multiple Sclerosis. As to conditions: 0.3 mg/day oral dose (Comi, 2007); cited from earlier work.
Data set [4] concerns subjects with relapsing remitting multiple sclerosis (RRMS). The data set is described as follows: Phase III clinical trial ALLEGRO: daily oral laquinimod 0.6 mg vs placebo. Type of data set: in vivo, human. As to conditions: daily oral 0.6 mg, RRMS patients. As for the experimental part: A multinational, multicenter (approximately 175 centers), randomized, double-blinded, parallel-group, placebo-controlled clinical trial (“ALLEGRO”) is conducted to evaluate the safety, tolerability and efficacy of daily oral administration of laquinimod 0.6 mg in subjects with relapsing remitting multiple sclerosis (RRMS). A multinational, multicenter, randomized, double-blind, parallel-group, placebo-controlled study, to evaluate the safety, tolerability and efficacy of daily oral administration of laquinimod 0.6 mg in subjects with relapsing remitting multiple sclerosis (RRMS). Double blind treatment phase: 24 months of once-daily oral administration of daily dose of 0.6 mg laquinimod or matching placebo Eligible subjects are equally randomized into one of the following treatment arms: • 1. Laquinimod capsules 0.6 mg. The 0.6 mg laquinimod is administered as laquinimod capsules which contains 0.6 mg of Laquinimod Acid per capsule with meglumine. • 2. Matching placebo capsules. Subjects are evaluated at study sites for 12 scheduled visits of the double blind phase at months: −1 (screening), 0 (baseline), 1, 2, 3, 6, 9, 12, 15, 18, 21 and 24 (termination/early discontinuation). In case of the 6 months extended study, subjects are evaluated at study sites at months 27 and 30 (termination/early discontinuation of extended study), in this case month 24 is a regular scheduled visit. The following assessments are performed at specified time points: • 1. Vital signs are measured at each study visit. • 2. A physical examination is performed at months −1 (screening), 0 (baseline) 1, 3, 6, 12, 18 and 24 (termination/early discontinuation core study). In case of the 6 months extended study, additional examination is performed at month 30 (termination/early discontinuation of extended study). • 3. The following safety clinical laboratory tests are performed: • a. Complete blood count (CBC) with differential—at all scheduled visits. A reticulocyte count is added to the CBC at months 0 (baseline) and 24/30 (termination/early discontinuation). • b. Serum chemistry (including electrolytes, liver enzymes, direct and total bilirubin and pancreatic amylase and CPK), and urinalysis—at all scheduled visits. • c. A rapid urine β-hCG test is performed in women of child-bearing potential at baseline (month 0) and at each scheduled study visit thereafter (at site). • d. β-hCG in women of child-bearing potential is performed at all scheduled visits. • e. Starting after visit Month 3 a rapid urine β-hCG test is performed in women of child-bearing potential every 28 (±2) days. The subject is contacted by telephone within 72 hours after the test is scheduled to be performed and asked specific questions regarding the test. In case of suspected pregnancy (positive urine β-hCG test result), the caller makes sure that the study drug has been discontinued and the subject is instructed to arrive at the site as soon as possible with all study drugs. • 4. Markers of inflammation (serum conventional C-reactive protein and fibrinogen)—at screening, baseline and all scheduled visits thereafter. • 5. During the first 3 months periodical phone calls are placed by the site personnel every two weeks. […] ECG is performed at months −1 (screening; additional recording, up to 30 minutes apart is performed if QTc is […] 450 msec), (baseline; three recordings, 15 minutes apart), 1, 2, 3, 6, 12, 18 and 24 (termination/early discontinuation). In case of the 6 months extended study, ECG is performed at month 30 (termination/early discontinuation of the extended study). • 7. Chest X-ray is performed at months −1 (screening), (if not performed within 7 months prior to the screening visit). • 8. Adverse Events (AEs) are monitored throughout the study. • 9. Concomitant medications are monitored throughout the study. • 10. […]

For `CCN(C(=O)c1c(O)c2c(Cl)cccc2n(C)c1=O)c1ccccc1` [Laquinimod sodium], in data set [1], the oral bioavailability result is “high”.

For `CCN(C(=O)c1c(O)c2c(Cl)cccc2n(C)c1=O)c1ccccc1` [laquinimod], the “development of active MRI lesions” value in the data set on relapsing MS (0.3 mg/day oral dose, relapsing MS (RRMS and SPMS) (Polman, 2005)) is on record as “reduce”. For the same compound, the “development of active MRI lesions” value in the data set with relapsing MS (relapsing MS, dose not stated (Polman, 2005)) is recorded as “reduce”. In addition, in data set [2], the “accumulation of physical disability, as measured by the MSFC score at the end of the treatment period” value is listed as “reduces”; the “accumulation of physical disability, as measured by time to confirmed progression of EDSS” value is on record as “reduces”; the “brain atrophy, as measured by percent brain volume change from baseline to the end of the treatment period” value is “reduces”. Further, the “number of confirmed relapses (directly related to the relapse rate)” value in data set [2] (treatment period) is reported as “reduces”. In addition, in data set [3], the “MRI and clinical effect as compared to placebo” value is reported as “neither MRI nor clinical effect”. In addition, in data set [4], the “MRI-monitored disease activity: cumulative number of enhancing lesions on T1-weighted images” value is reported as “reduces”; the “MRI-monitored disease activity: cumulative number of new T2 lesions” value is “reduces”; the “MRI-monitored disease activity: cumulative number of new hypointense lesions on T1-scans” value is given as “reduces”; the “accumulation of physical disability, as measured by the time to confirmed progression of EDSS” value was “reduces”. The relapse rate entry in data set [4] (double blind study period) was “reduces”. Besides, the “number of confirmed relapses during the double blind study period” value in data set [4] (vs placebo) is recorded as “reduces”.
